Test results published in US20190105337A1, “METHODS OF TREATING BACTERIAL INFECTIONS” (priority 2015, published 2019).
Values after ≈ are worked out from the molar mass of the structure shown. Where two headings read alike, the source gives them in different places.

Experiments:
P. aeruginosa strains = assay: MIC by broth microdilution (CLSI), P. aeruginosa strains; assay type: cell-based; settings: Pseudomonas aeruginosa
[1] = Example 2: treatment emergent adverse events, single dose phase; assay type: in vivo, human; settings: Pooled Meropenem alone
Description: The combination of both drugs was administered on day 7. All drugs were infused over 3 hours. Plasma and urine samples were obtained and assayed using validated HPLC/MS methods.
No subjects discontinued due to AEs and no SAEs were observed.

Compound: C[C@@H](O)[C@H]1C(=O)N2C(C(=O)O)=C(S[C@@H]3CN[C@H](C(=O)N(C)C)C3)[C@H](C)[C@H]12 [meropenem, Meropenem]
- MIC (P. aeruginosa strains; P. aeruginosa PAM3210, read-out: MIC): 2 µg/mL (≈ 5.22 µM)
- MIC (P. aeruginosa strains; P. aeruginosa PAM3353, read-out: MIC): 8 µg/mL (≈ 20.9 µM)
- MIC (P. aeruginosa strains; P. aeruginosa PAM3377, read-out: MIC): 4 to 8 µg/mL (≈ 10.4 to 20.9 µM)
- MIC (P. aeruginosa strains; read-out: Meropenem (w/ 8 mg/L Compound I) MIC, P. aeruginosa PAM3210, w/ 8 mg/L Compound I): 2 µg/mL (≈ 5.22 µM)
- MIC (P. aeruginosa strains; read-out: Meropenem (w/ 8 mg/L Compound I) MIC, P. aeruginosa PAM3353, w/ 8 mg/L Compound I): 8 µg/mL (≈ 20.9 µM)
- MIC (P. aeruginosa strains; read-out: Meropenem (w/ 8 mg/L Compound I) MIC, P. aeruginosa PAM3377, w/ 8 mg/L Compound I): 4 to 8 µg/mL (≈ 10.4 to 20.9 µM)
- MIC (P. aeruginosa strains; read-out: Meropenem MIC, P. aeruginosa PAM3210): 2 µg/mL (≈ 5.22 µM)
- MIC (P. aeruginosa strains; read-out: Meropenem MIC, P. aeruginosa PAM3353): 8 µg/mL (≈ 20.9 µM)
- MIC (P. aeruginosa strains; read-out: Meropenem MIC, P. aeruginosa PAM3377): 4 to 8 µg/mL (≈ 10.4 to 20.9 µM)
- Headache, % [1]: 37%
- Infusion site pain, % [1]: 10%
- PK catheter site hematoma, % [1]: 21%
- PK catheter site pain, % [1]: 10%
- Subjects with TEAEs, % [1]: 95%
